Measured values: BigSolDB 2.1

COc1cc(/C=C/C(=O)O)cc(OC)c1O
solubility (mole fraction)
Conditions	in DMSO	in ethanol	in ethyl acetate	in ethylene glycol	in isopropanol	in n-butanol	in propylene glycol	in sec-butanol	in transcutol	in water
298.15 K	0.148	0.012	0.00532	0.0059	0.00213	0.00355	0.00452	0.00409	0.0298	6.22e-05
303.15 K	0.15	0.013	0.00627	0.00663	0.00222	0.00429	0.0053	0.00486	0.0324	8.11e-05
308.15 K	0.153	0.0141	0.00764	0.00748	0.00234	0.00529	0.00607	0.00559	0.0353	0.000113
313.15 K	0.156	0.0152	0.00935	0.00843	0.00245	0.00631	0.00708	0.00663	0.0383	0.000146
318.15 K	0.159	0.0164	0.0109	0.00934	0.00257	0.00729	0.00811	0.00761	0.0412	0.000188

Conditions	solubility (mole fraction)
in PEG-400, 298.15 K	0.0558
in PEG-400, 303.15 K	0.0616
in PEG-400, 308.15 K	0.0681
in PEG-400, 313.15 K	0.0748
in PEG-400, 318.15 K	0.0834
